Experiments:
Experiment in all cases: pIC50, kinobeads binding competition
BLK = BLK (UniProt P51451)
Summary of the method: (§1)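 Nine compound concentrations were tested, starting at 30 μM in 1:4 steps on live Jurkat cells (60 min, 37 °C, then lysis) or in 1:5 steps on Jurkat lysate or a 1:1:1:1 HEK293/K-562/HepG2/placenta lysate mix (60 min, 4 °C). Kinobeads-bound proteins were digested and quantified with TMT10 LC-MS/MS. pIC50 values are from logistic dose-response fits in the R drc package of fold changes relative to vehicle, from biological duplicates.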

CAMK1D = CAMK1D (UniProt Q8IU85)
Sequence of CAMK1D (Q8IU85 whole entry, looked up): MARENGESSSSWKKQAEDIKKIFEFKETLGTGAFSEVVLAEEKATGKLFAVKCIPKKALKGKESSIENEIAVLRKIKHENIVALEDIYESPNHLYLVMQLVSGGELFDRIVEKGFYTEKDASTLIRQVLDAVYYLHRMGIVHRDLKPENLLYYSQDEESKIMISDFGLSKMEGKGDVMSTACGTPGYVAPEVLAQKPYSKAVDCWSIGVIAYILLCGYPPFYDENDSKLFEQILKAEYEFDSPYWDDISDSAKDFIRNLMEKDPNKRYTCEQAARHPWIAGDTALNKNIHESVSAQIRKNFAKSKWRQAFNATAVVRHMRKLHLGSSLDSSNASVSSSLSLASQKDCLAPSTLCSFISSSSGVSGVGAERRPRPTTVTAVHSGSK
Summary of the method: as §1

PAK1 = PAK1 (UniProt Q13153); settings: cell material: Jurkat cells
Sequence of PAK1 (Q13153 whole entry): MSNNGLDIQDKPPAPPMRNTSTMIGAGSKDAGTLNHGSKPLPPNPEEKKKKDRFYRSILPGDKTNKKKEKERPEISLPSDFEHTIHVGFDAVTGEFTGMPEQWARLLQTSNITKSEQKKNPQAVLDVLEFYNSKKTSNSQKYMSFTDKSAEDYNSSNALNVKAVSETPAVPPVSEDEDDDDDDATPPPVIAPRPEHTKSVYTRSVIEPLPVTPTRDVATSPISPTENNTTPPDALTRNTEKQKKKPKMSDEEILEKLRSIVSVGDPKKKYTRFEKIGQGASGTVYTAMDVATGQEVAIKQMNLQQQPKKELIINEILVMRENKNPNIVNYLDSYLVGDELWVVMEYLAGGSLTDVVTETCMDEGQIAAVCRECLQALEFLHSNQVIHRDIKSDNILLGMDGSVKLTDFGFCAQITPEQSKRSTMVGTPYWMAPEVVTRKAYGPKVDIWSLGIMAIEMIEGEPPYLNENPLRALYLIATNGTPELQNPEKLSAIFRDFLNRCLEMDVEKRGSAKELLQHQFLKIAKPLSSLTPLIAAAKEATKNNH
Summary of the method: as §1

RAF1 = RAF1 (UniProt P04049)
Sequence of RAF1 (P04049 whole entry): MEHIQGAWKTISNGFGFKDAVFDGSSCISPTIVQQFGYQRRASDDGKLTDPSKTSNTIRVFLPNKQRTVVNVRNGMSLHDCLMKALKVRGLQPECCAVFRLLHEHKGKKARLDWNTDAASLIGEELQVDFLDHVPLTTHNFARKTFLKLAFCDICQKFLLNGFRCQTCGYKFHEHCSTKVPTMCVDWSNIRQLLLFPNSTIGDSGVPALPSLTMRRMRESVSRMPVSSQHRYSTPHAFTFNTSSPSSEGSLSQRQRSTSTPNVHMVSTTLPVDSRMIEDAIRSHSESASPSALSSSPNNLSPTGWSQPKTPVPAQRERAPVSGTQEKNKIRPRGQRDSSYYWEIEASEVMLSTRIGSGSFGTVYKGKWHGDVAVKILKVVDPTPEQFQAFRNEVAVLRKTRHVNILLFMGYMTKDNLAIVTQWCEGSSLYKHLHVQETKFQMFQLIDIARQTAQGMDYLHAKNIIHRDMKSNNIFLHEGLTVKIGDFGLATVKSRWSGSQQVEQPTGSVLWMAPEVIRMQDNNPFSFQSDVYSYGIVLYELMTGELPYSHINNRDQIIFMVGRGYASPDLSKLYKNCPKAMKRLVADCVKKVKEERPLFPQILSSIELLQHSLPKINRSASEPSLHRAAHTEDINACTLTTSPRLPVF
Summary of the method: as §1

RIOK1 = molecular target: T1, RIOK1 (UniProt Q9BRS2)
T1 sequence (whole entry): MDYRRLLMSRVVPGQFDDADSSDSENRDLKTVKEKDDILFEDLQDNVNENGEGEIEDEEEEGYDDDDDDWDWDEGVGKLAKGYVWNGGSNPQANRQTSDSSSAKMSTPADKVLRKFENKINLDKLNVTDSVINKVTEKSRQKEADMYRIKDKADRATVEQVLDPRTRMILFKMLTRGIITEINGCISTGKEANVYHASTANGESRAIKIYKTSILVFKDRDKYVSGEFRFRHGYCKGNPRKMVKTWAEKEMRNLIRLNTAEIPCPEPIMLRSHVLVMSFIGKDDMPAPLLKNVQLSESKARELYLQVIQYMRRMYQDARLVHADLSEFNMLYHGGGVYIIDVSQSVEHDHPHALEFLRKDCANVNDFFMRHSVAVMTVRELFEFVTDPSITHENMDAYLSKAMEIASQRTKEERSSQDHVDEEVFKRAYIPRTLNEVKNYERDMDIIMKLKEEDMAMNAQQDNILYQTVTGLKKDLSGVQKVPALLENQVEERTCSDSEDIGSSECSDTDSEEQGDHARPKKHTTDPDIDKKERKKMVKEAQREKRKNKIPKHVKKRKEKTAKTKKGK
Summary of the method: as §1

RIPK3 = RIPK3 (UniProt Q9Y572)
Sequence of RIPK3 (Q9Y572 whole entry, looked up): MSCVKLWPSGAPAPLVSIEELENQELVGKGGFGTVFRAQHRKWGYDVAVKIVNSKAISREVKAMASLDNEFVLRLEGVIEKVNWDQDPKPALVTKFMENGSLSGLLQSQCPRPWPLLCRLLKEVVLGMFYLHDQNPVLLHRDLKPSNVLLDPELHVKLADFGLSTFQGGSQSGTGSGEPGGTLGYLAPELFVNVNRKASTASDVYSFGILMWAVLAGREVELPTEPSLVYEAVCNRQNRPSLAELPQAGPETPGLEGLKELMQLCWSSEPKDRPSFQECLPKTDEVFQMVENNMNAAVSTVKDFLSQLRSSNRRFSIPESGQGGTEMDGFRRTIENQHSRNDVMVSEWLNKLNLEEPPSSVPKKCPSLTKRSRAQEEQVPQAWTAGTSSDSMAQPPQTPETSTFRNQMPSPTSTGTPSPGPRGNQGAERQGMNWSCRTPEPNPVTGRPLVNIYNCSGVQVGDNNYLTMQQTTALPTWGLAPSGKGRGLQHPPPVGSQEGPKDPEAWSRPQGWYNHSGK
Summary of the method: as §1

TXK = molecular target: T2, TXK (UniProt P42681)
T2 sequence (whole entry): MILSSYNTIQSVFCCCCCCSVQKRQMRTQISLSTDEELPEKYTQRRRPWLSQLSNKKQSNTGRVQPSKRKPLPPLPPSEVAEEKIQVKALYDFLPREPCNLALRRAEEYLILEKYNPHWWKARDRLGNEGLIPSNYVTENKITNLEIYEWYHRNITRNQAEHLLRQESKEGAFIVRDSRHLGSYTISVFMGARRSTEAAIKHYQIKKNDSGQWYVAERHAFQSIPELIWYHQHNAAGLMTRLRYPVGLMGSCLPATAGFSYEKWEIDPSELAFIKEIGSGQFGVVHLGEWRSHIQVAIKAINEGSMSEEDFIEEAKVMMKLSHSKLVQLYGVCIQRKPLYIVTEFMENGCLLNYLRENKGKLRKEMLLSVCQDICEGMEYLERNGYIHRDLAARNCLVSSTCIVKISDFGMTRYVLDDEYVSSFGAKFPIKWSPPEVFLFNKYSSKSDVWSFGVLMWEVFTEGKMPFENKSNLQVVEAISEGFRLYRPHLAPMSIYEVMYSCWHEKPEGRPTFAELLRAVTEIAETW
Summary of the method: as §1

UHMK1 = molecular target: T3, UHMK1 (UniProt Q8TAS1); settings: cell material: Jurkat lysate
T3 sequence (whole entry): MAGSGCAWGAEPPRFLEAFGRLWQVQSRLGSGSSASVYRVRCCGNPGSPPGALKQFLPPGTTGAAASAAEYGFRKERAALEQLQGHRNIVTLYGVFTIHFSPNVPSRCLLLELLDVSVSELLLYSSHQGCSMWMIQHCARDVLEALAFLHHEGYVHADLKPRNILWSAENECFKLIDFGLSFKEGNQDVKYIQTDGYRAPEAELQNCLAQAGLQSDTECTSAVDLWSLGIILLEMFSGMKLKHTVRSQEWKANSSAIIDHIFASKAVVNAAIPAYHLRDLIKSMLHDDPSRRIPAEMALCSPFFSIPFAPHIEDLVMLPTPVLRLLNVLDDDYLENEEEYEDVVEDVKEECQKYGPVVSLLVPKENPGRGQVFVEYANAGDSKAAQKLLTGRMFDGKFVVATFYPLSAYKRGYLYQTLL
Summary of the method: as §1

UniProt Q6XUX3 = settings: cell material: Lysate mix
Sequence of UniProt Q6XUX3 (Q6XUX3 whole entry): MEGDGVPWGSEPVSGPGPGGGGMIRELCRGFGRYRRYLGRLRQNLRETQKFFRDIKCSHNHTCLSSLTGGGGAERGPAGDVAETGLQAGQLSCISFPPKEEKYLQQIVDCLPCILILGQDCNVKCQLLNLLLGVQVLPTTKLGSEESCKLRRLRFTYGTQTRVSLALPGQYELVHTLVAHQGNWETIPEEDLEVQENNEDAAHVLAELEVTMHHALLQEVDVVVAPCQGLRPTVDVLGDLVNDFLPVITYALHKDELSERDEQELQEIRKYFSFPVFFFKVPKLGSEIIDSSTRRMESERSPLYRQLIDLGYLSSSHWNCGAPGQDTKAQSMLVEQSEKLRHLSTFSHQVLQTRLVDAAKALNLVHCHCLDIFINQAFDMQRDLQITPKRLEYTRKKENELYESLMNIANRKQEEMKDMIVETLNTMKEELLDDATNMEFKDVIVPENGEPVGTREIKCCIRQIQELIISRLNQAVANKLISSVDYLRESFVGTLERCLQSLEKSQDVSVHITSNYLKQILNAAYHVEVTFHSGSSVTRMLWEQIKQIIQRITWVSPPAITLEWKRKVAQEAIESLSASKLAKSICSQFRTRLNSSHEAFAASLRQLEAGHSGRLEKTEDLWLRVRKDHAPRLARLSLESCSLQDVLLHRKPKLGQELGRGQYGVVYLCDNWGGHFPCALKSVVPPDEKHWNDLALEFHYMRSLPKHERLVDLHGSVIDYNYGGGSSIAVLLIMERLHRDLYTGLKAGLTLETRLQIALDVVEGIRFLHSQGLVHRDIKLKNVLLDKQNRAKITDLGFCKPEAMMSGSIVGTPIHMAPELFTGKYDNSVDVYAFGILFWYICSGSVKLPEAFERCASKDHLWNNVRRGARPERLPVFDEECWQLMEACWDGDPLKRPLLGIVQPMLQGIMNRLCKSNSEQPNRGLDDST
Summary of the method: as §1

UniProt Q9H093 = settings: cell material: Lysate mix
Summary of the method: as §1

ZAP70 = molecular target: T4, ZAP70 (UniProt P43403)
T4 sequence (whole entry): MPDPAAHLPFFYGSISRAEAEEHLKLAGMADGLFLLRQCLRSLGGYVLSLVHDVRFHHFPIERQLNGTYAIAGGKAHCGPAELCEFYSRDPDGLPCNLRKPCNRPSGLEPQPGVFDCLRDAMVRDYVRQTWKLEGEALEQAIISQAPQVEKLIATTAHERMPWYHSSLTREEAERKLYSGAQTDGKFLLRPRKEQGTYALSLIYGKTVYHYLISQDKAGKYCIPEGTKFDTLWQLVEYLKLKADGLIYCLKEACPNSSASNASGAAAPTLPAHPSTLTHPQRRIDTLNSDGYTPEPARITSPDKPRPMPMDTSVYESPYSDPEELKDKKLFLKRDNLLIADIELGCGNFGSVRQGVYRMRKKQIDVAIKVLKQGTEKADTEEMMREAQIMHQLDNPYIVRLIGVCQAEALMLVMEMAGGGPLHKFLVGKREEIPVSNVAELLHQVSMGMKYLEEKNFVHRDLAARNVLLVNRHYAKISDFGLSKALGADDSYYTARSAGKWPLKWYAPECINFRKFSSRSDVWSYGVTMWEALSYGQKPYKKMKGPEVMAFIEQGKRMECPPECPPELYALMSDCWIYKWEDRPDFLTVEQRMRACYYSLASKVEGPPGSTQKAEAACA
Summary of the method: as §1

LZK = LZK (UniProt O43283); settings: cell material: Lysate mix
Sequence of LZK (O43283 whole entry): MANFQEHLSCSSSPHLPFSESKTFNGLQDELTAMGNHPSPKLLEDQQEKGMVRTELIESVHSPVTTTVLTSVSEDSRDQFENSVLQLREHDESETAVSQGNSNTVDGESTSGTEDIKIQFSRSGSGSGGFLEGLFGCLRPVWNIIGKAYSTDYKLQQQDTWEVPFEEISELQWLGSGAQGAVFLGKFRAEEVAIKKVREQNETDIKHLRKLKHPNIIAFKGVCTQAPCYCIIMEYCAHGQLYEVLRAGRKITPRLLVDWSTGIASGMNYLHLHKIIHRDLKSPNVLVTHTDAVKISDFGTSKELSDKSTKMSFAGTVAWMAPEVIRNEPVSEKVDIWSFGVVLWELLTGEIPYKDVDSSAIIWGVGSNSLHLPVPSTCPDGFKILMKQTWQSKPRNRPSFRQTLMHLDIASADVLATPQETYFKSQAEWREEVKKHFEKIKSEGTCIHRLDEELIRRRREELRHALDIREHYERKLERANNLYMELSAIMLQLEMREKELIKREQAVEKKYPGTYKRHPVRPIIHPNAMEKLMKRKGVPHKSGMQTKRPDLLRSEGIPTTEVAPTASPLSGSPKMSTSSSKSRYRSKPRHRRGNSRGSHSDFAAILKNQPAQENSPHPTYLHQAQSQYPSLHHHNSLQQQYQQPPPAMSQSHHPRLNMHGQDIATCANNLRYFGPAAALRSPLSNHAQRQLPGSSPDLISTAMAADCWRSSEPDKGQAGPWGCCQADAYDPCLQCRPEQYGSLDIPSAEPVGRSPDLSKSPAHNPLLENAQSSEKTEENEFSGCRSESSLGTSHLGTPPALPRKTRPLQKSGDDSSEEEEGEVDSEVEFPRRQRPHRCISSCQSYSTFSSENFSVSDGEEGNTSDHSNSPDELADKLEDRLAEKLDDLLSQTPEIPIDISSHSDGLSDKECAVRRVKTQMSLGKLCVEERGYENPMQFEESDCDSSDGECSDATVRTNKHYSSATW
Summary of the method: as §1

Sequence of BLK (P51451 whole entry, looked up): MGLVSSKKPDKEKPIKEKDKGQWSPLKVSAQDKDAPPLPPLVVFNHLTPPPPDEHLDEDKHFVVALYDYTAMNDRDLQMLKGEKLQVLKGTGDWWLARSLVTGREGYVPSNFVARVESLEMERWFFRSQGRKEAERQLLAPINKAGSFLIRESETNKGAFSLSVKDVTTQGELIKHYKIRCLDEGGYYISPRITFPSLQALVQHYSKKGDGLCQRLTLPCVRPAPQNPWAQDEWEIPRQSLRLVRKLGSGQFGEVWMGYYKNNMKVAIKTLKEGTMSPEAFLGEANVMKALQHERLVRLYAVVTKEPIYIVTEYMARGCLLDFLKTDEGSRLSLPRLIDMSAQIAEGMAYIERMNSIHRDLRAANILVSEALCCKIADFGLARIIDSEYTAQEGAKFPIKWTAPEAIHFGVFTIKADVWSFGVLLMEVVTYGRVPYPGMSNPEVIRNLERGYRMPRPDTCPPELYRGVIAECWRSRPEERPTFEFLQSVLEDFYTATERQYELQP

SMILES	pIC50 (RAF1; cell material: Jurkat lysate)	pIC50 (UniProt Q6XUX3)	pIC50 (UniProt Q9H093)	pIC50 (LZK)	pIC50 (BLK; cell material: Jurkat cells)	pIC50 (BLK; cell material: Jurkat lysate)	pIC50 (CAMK1D; cell material: Jurkat cells)	pIC50 (PAK1)	pIC50 (RAF1; cell material: Jurkat cells)	pIC50 (RIOK1; cell material: Jurkat cells)	pIC50 (RIOK1; cell material: Jurkat lysate)	pIC50 (RIPK3; cell material: Jurkat lysate)	pIC50 (TXK; cell material: Jurkat cells)	pIC50 (TXK; cell material: Jurkat lysate)	pIC50 (UHMK1)	pIC50 (ZAP70; cell material: Jurkat cells)	pIC50 (ZAP70; cell material: Jurkat lysate)	pIC50 (CAMK1D; cell material: Jurkat lysate)	pIC50 (RIPK3; cell material: Jurkat cells)
CCNC(=O)c1cc(Nc2cc(C3CC3)[nH]n2)nc(N2CCN(Cc3ccc(S(=O)(=O)F)cc3)CC2)n1				5.12															
C#CCNC(=O)c1cc(Nc2cc(C3CC3)[nH]n2)nc(N2CCN(Cc3ccc(S(=O)(=O)F)cc3)CC2)n1					6.82	6.51	5.94	< 4.52	< 4.52	< 4.52	< 4.52	4.67	5.4	< 4.52	< 4.52	6.43	< 4.52	< 4.52	4.85

Now from value to compound, other results behind:

pIC50 (RAF1; cell material: Jurkat lysate)	pIC50 (UniProt Q6XUX3)	pIC50 (UniProt Q9H093)	pIC50 (LZK)	SMILES	pIC50 (BLK; cell material: Jurkat cells)	pIC50 (BLK; cell material: Jurkat lysate)	pIC50 (CAMK1D; cell material: Jurkat cells)	pIC50 (PAK1)	pIC50 (RAF1; cell material: Jurkat cells)	pIC50 (RIOK1; cell material: Jurkat cells)	pIC50 (RIOK1; cell material: Jurkat lysate)	pIC50 (RIPK3; cell material: Jurkat lysate)	pIC50 (TXK; cell material: Jurkat cells)	pIC50 (TXK; cell material: Jurkat lysate)	pIC50 (UHMK1)	pIC50 (ZAP70; cell material: Jurkat cells)	pIC50 (ZAP70; cell material: Jurkat lysate)	pIC50 (CAMK1D; cell material: Jurkat lysate)	pIC50 (RIPK3; cell material: Jurkat cells)
< 4.52	5.77	< 4.52		O=C(NCCNC(=O)c1cc(Nc2cc(C3CC3)[nH]n2)nc(N2CCN(Cc3ccc(S(=O)(=O)F)cc3)CC2)n1)OC1CC/C=C/CCC1 (stereo not given)	6.73	5.1	5.82	< 4.52	< 4.52	< 4.52	< 4.52	< 4.52	< 4.52	< 4.52	< 4.52	6.09	< 4.52		
		< 4.52	< 4.52	Cc1cc(Nc2cc(C(=O)NCCNC(=O)OC3CC/C=C/CCC3)nc(N3CCN(Cc4ccc(S(=O)(=O)F)cc4)CC3)n2)n[nH]1 (stereo not given)															
	5			C#CCNC(=O)c1cc(Nc2cc(C)[nH]n2)nc(N2CCN(Cc3ccc(S(=O)(=O)F)cc3)CC2)n1															
